Experimental data published in article PMC4741889, “Ligand-based chemoinformatic discovery of a novel small molecule inhibitor targeting CDC25 dual specificity phosphatases and displaying in vitro efficacy against melanoma cells” (Oncotarget, 2015).

Experiments:
[1] = target: T1, CDC25C (Homo sapiens, UniProt P30307); test: Ki from OMFP hydrolysis kinetics (Lineweaver-Burk), CDC25C; type: biochemical; details: 40 nM CDC25C, 1–25 μM OMFP; mean ± S.E.; read-out: Ki CDC25C
T1 construct: Recombinant forms of the catalytic domains of CDC25A, -B and -C were obtained through the vectors pET28a-CDC25A-cd, pET28a-CDC25B-cd and pET28a-CDC25C-cd; made in house
T1 sequence (P30307 321-428 limits assumed): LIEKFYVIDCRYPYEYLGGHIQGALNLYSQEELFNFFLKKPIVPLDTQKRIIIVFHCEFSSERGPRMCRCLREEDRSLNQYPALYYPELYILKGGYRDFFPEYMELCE
Experimental: To measure the inhibition constant (Ki) of the recombinant forms of CDC25A, -B and -C towards the various inhibitors, the affinity of the different forms of CDC25 towards OMFP was measured either in the absence or in the presence of fixed concentrations of the various inhibitors. The reaction mixture contained 20 nM CDC25A, or 10 nM CDC25B, or 40 nM CDC25C, and different concentrations of the various inhibitors in 500 μL final volume of 20 mM Tris-HCl, pH 7.8, 1 mM DTT. DMSO was used as vehicle control. […] The corresponding Lineweaver-Burk plots allowed the calculation of the KM for OMFP and of the Vmax of OMFP hydrolysis, expressed as a.u./minmax. […] The Ki values were obtained from the decrease of a.u./minmax in the presence of the inhibitor, according to the equation a.u./mimmax’ = a.u./mimmax/{1 + ([I]/Ki)}, where a.u./mimmax’ represents the Vmax measured in the presence of the concentration [I] of the inhibitor. The Ki values were obtained from at least three independent experiments and reported as mean ± S.E.

[2] = test system: A2058 cells; test: Cell cycle analysis by PI flow cytometry, A2058 cells; type: cell-based, human; details: A2058, 100 μM
Experimental: As CDC25 phosphatases are key cell cycle regulators, the effect of 7 on cell cycle progression was investigated in detail. To this aim, asynchronously growing A2058 and SAN cells were treated at different times with 100 μM compound 7, and then cell cycle analysis was cytofluorimetrically monitored after propidium iodide (PI) incorporation. […] After 16-h incubation with […], cells were mainly and almost equally distributed in G0/G1 and G2/M phases (the ratio between them being 0.96), whereas the cellular population in the S phase was essentially undetectable. […] A similar general picture emerged from the effect of compound 7 on cell cycle progression of SAN cells (Supplementary Figure S3).
Cells were seeded into 6-well plates at 3 × 10^5 cells/well for 24 h at 37°C; after the addition of 100 μM 7 or 0.5% DMSO as a vehicle control, the incubation of treated cells continued for 16 or 24 h. After each treatment, cells were harvested with trypsin, centrifuged and the pellet was resuspended in phosphate-buffered saline (PBS). For cell cycle analysis, cells were fixed with 70% (v/v) cold ethanol and stored at −20°C for 1 h. […] After incubation at 4°C for 30 min, cells were analyzed with a FACScan flow cytometer (Becton Dickinson) for evaluating the distribution in cell cycle phases or the presence of nuclei with a DNA content lower than the diploid.

[3] = test system: CDC25A protein levels; test: Western blotting of CDC25A protein levels in A2058 cells; type: cell-based, human; details: A2058, 100 μM, 2-16 h
Experimental: To better investigate the effect of this inhibitor at the molecular level, we evaluated if the treatment of A2058 cells with 7 affected also the protein levels of the three CDC25 forms. […] On the other hand, the protein levels of CDC25B were unaffected by treatment of A2058 cells with 7 up to 16 h.
A2058 cells were seeded into 6-well-plates (3 × 10^5 cells/plate) for 24 h at 37°C and then treated at different times with 100 μM compound 7 or 0.5% DMSO. After treatment, cells were harvested, washed with PBS and then lysed in ice-cold modified radio immunoprecipitation assay (RIPA) buffer (50 mM Tris-HCl, pH 7.4, 150 mM NaCl, 1% Nonidet P-40, 0.25% sodium deoxycholate, 1 mM Na3VO4 and 1 mM NaF), supplemented with protease inhibitors and incubated for 30 min on ice. The supernatant obtained after centrifugation at 12,000 rpm for 30 min at 4°C constituted the total protein extract. The protein concentration was determined by the method of Bradford, using bovine serum albumin (BSA) as standard. Equal amounts of total protein extracts were used for Western blot analysis. […] Membranes were then analysed by an enhanced chemiluminescence reaction, using Super Signal West Pico kit (Pierce) according to manufacturer's instruction; signals were visualized by autoradiography.

[4] = test system: Bcl-2 and Bax protein levels; test: Western blotting of Bcl-2 and Bax protein levels in A2058 cells; type: cell-based, human; details: A2058, 100 μM
Experimental: Mitochondria represent the primary source of ROS, as well the target of ROS action, and therefore, compound 7 could affect their functionality in melanoma cells. […] Proteins belonging to the B-cell lymphoma-2 (Bcl-2) family are involved in the modulation of the mitochondrial functionality. Therefore, we have evaluated the levels of the anti-apoptotic protein Bcl-2, as well as that of the pro-apoptotic Bcl-2-associated X protein (Bax), after incubation with 7 (Figure 10B). […] To further investigate the occurrence of a mitochondrial-mediated apoptosis induced by 7, the caspase-9 activity was assayed. […] The effect of compound 7 was investigated also in SAN cells and the overall results were similar to those observed in A2058 (Supplementary Figure S6).
A2058 cells were seeded into 6-well-plates (3 × 10^5 cells/plate) for 24 h at 37°C and then treated at different times with 100 μM compound 7 or 0.5% DMSO. After treatment, cells were harvested, washed with PBS and then lysed in ice-cold modified radio immunoprecipitation assay (RIPA) buffer (50 mM Tris-HCl, pH 7.4, 150 mM NaCl, 1% Nonidet P-40, 0.25% sodium deoxycholate, 1 mM Na3VO4 and 1 mM NaF), supplemented with protease inhibitors and incubated for 30 min on ice. The supernatant obtained after centrifugation at 12,000 rpm for 30 min at 4°C constituted the total protein extract. The protein concentration was determined by the method of Bradford, using bovine serum albumin (BSA) as standard. Equal amounts of total protein extracts were used for Western blot analysis. […] The filter was incubated with the specific primary antibody at 4°C overnight and then with the secondary antibody at room temperature for 1 h. Membranes were then analysed by an enhanced chemiluminescence reaction, using Super Signal West Pico kit (Pierce) according to manufacturer's instruction; signals were visualized by autoradiography.

[5] = test system: p53 protein levels; test: Western blotting of p53 protein levels in A2058 cells; type: cell-based, human; details: A2058, 100 μM, 8 h; significant after 16 h
Experimental: The molecular mechanisms that regulate the cytotoxic potential of 7 in melanoma cells were further investigated through the evaluation of the activation state of protein kinase B (pAkt), one of the key proteins involved in the control and regulation of cell survival. To this aim, the protein levels of pAkt have been analyzed after 2- and 4-h incubation of A2058 cells with 7. […] It is known that Akt regulates the process of cell survival by phosphorylating different substrates, directly or indirectly involved in the apoptotic program. One of these targets is p53, a protein with a tumor-suppressor activity that regulates the cell cycle, as well as the expression of several genes involved in the apoptosis. […]
A2058 cells were seeded into 6-well-plates (3 × 10^5 cells/plate) for 24 h at 37°C and then treated at different times with 100 μM compound 7 or 0.5% DMSO. […] The protein concentration was determined by the method of Bradford, using bovine serum albumin (BSA) as standard. […] Membranes were then analysed by an enhanced chemiluminescence reaction, using Super Signal West Pico kit (Pierce) according to manufacturer's instruction; signals were visualized by autoradiography.

## O=C(O)C1CCCCC1c1c2ccc(=O)cc-2oc2cc(O)ccc12 (centres unmarked) [Compound 7, 2-(6-hydroxy-3-oxo-3H-xanthen-9-yl)cyclohexanecarboxylic acid]
[1]
  Ki: 3.1 ± 0.22 µM
[2]; 16 h, vehicle 0.96
  ratio between G0/G1 and G2/M: 0.38
[2]; 24 h, untreated 1.23
  ratio between G0/G1 and G2/M: 0.45
[3]
  CDC25A protein levels: early reduction of the CDC25A protein levels up to 4 h
[4]; 8 and 16 h
  Bcl-2/Bax ratio: significant reduction
  Bcl-2 protein level: clear reduction of the Bcl-2 level after 8-h treatment
[4]; 16 h
  Bax protein level: clear increase of Bax
[5]
  p53 protein level: higher level of p53 compared to control
